Measured values as given in patent US7572786B2, “Substituted 1-piperidin-3-yl-4-piperidin-4-yl-piperazine derivatives and their use as neurokinin antagonists” (Janssen Pharmaceutica, N.V., priority 2002, dated 2009).

Columns and labels:
Type in all cases: cell-based
NK2 = molecular target: T1, NK2 (Homo sapiens, UniProt P21452); assay: Signal transduction (ST), intracellular Ca++ (FLIPR), NK2; conditions: for IC50: read-out: pIC50 NK2 (converted)
T1 sequence (P21452 1-398): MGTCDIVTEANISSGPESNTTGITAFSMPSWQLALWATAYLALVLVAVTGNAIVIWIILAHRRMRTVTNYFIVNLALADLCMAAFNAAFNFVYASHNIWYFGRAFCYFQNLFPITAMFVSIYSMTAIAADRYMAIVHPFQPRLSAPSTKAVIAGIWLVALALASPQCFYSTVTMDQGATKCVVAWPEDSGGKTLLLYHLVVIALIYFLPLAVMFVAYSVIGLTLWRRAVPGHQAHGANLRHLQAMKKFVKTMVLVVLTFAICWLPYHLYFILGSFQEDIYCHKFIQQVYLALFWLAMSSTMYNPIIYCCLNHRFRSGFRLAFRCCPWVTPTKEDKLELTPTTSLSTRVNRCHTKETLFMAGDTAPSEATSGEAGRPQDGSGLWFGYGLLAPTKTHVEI

NK3 = molecular target: T2, NK3 (Homo sapiens, UniProt P29371); assay: Signal transduction (ST), intracellular Ca++ (FLIPR), NK3; conditions: for IC50: read-out: pIC50 NK3 (converted)
T2 sequence (P29371 1-465): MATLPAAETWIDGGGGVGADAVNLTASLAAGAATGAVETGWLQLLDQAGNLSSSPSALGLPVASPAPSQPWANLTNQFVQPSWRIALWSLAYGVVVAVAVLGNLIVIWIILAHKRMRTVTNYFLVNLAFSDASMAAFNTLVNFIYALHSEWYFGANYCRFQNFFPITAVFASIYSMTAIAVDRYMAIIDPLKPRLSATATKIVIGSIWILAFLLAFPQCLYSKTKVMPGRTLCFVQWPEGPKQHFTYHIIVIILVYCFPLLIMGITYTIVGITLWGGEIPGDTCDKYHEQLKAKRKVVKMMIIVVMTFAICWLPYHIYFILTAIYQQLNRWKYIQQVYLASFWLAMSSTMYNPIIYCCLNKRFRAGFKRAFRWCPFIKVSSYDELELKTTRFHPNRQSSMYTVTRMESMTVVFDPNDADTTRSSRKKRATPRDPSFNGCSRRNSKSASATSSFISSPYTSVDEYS

NK1 = NK1 (Homo sapiens, UniProt P25103); assay: Signal transduction (ST), intracellular Ca++ (FLIPR), NK1 antagonism; conditions: for IC50: read-out: pIC50 NK1 (converted)
Sequence of NK1 (P25103 whole entry): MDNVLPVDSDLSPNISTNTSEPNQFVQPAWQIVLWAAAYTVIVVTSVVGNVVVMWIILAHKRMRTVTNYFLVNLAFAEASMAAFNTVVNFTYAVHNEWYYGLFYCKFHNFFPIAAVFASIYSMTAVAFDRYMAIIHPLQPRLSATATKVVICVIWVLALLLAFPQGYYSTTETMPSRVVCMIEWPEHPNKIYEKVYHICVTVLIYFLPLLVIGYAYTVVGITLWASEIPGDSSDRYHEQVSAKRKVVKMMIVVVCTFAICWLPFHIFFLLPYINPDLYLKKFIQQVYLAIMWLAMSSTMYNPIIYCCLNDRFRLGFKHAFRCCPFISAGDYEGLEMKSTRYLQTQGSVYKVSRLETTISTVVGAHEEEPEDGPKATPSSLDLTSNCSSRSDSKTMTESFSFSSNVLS
Summary of the method: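 Confluent cells were loaded with 2 μM Fluo3 with probenecid for 1 h at 37°C, then preincubated with antagonist concentration ranges for 20 min at RT before agonist addition. Peak FLIPR calcium transient was taken as signal; IC50 from non-linear regression of sigmoidal curves.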

Row | SMILES | IC50 (NK2) [nM] | IC50 (NK3) [nM] | IC50 (NK1) [nM] | pIC50 NK2 (NK2) | pIC50 NK3 (NK3) | pIC50 NK1 (NK1)
1 | O=C(c1sccc1CO)N1CCCC(N2CCN([C@H]3CCN(C(=O)c4cc(C(F)(F)F)cc(C(F)(F)F)c4)[C@H](Cc4ccccc4)C3)CC2)C1 (stereo partly drawn) [Compound 97] | 3980 | 2510 | 10 |  |  | 
2 | O=C(c1ccc(CCO)s1)N1CCCC(N2CCN(C3CCN(C(=O)c4cc(C(F)(F)F)cc(C(F)(F)F)c4)C(Cc4ccccc4)C3)CC2)C1 (stereo not drawn) [Compound 98] | 5010 | 2000 | 12.6 |  |  | 
3 | O=C(c1cc(CCOCc2ccccc2)cs1)N1CCCC(N2CCN([C@H]3CCN(C(=O)c4cc(C(F)(F)F)cc(C(F)(F)F)c4)[C@H](Cc4ccccc4)C3)CC2)C1 (stereo partly drawn) [Compound 99] |  |  |  | 5.2 | 5.5 | 6.7
4 | O=C(c1cc(C(F)(F)F)cc(C(F)(F)F)c1)N1CC[C@H](N2CCN(C3CCCN(S(=O)(=O)c4csc(COCc5ccccc5)c4)C3)CC2)C[C@H]1Cc1ccccc1 (stereo partly drawn) [Compound 104] | 1260 | 316 | 126 |  |  | 
5 | CC(=O)OCC(c1ccccc1Cl)N1CCCC(N2CCN(C3CCN(C(=O)c4cc(C(F)(F)F)cc(C(F)(F)F)c4)C(Cc4ccccc4)C3)CC2)C1 (stereo not drawn) [Compound 124] | 5010 | 2510 | 398 |  |  | 
